According to patent publication EP0717995A2, “Cell degeneration suppressing and organ toxicity reducing agent” (SANWA KAGAKU KENKYUSHO CO., LTD., priority 1994, dated 1996):
Where two headings read alike, the source gives them in different places.

Experiments:
Assay type in all cases: in vivo
rats of 10 months of age = tested on: rats of 10 months of age
Description: Using rats of 10 months of age (8 to 9 animals per 1 group), 0.5 g/kg of carbon tetrachloride was orally administered as a hepatic toxicity substance to increase the serum GOT level to 500 KARMEN units or more after 24 hours of the administration, simultaneously carrying out oral administration of (1) indomethacin (5 mg/kg) or (2) tetracycline (10 mg/kg) as a pharmaceutical drug having hepatic toxicity, 3 times on every other day.
In the inventive substance-treated group, the sulfatide composition described in Composition Production Example (2 mg/kg as sulfatide) was orally administered simultaneously with the pharmaceutical drug having hepatic toxicity.
The GOT enzyme released in blood caused by hepatocyte destruction was measured 12 hours after completion of the drug administration, and the liver was extracted to carry out histological tissue examination.

[1] = tested on: spontaneous nephritis in MRL/1 mice; assay: Preventive action against spontaneous nephritis in MRL/1 mice (urinary protein, blood urea nitrogen); settings: male MRL/1 mice, positive (urinary protein 100 mg/dl or more) / survived animals
Description: Protective effect of the pharmaceutical preparation of the present invention against spontaneous nephritis in MRL/1 mice was examined (protective effect on functional reduction due to aging).
Each test sample of 1 to 10 mg/kg mixed with feed was orally administered to male MRL/1 mice of 6 weeks of age (15 animals per 1 group) twice a week for 12 weeks. During the administration period, urinary protein was measured once a week to examine positive ratio in each week of age by defining an individual showing a urinary protein level of 100 mg/dl or more as positive. Also, blood urea nitrogen was measured on the next day of the final administration to carry out serologic biochemical evaluation of the action of the compound of the present invention against nephritis, together with histopathological evaluation.

[2] = tested on: herpes simplex type 1 virus (HSV-1); assay: Interferon enhancer effect in mice infected with herpes simplex type 1 virus (survival); settings: BALB/c mice, HSV-1 MIYAMA strain 10 LD50; oral sulfatide for 5 days together with 4 × 10⁴ IU/kg IFN-α i.p.
Description: Synergetic effect of the simultaneous use of IFN-α and sulfatide on mice infected with herpes simplex type 1 virus (HSV-1)
A total of 10 BALB/c mice were used in one group and infected with a 10 LD₅₀ equivalent dose of HSV-1 MIYAMA strain. Intraperitoneal administration of IFN-α was carried out on the day before the inoculation of HSV-1 and just after the inoculation, and oral administration of sulfatide was carried out continuously for 5 days starting on the day before the HSV-1 inoculation until the fourth day after the inoculation. Conditions of the animals were observed until 20 days after the HSV-1 infection to calculate survival rate.

[3] = tested on: mouse hepatitis virus (MHV); assay: Interferon enhancer effect in mice infected with mouse hepatitis virus (survival); settings: ICR mice, MHV Friend strain 2 LD50 i.p.; oral sulfatide used simultaneously with IFN-α i.p., once a day for 3 days
Description: Synergetic effect of the simultaneous use of interferon-α (IFN-α) and the substance of the present invention, sulfatide, on mice infected with mouse hepatitis virus (MHV)
A total of 10 ICR mice were used in one group, and intraperitoneal administration of mouse IFN-α and oral administration of […] were carried out once a day for 3 days. Just before the administration on the second day, MHV Friend strain was inoculated into the abdominal cavity in a 2 LD₅₀ equivalent dose, and conditions of the animals were observed until 14 days thereafter to calculate survival ratio.

[4] = dose 2 mg/kg oral in feed twice a week from 6 weeks of age
[5] = dose 1 mg/kg oral in feed twice a week from 6 weeks of age

Molecule	Changes in positive urinary protein, Weeks of Age 16 [1, 4]	Changes in positive urinary protein, Weeks of Age 17 [1, 4]	Changes in positive urinary protein, Weeks of Age 18 [1, 4]	other results
COc1ccc2c(c1)c(CC(=O)O)c(C)n2C(=O)c1ccc(Cl)cc1 [indomethacin, reference compound]				Changes in GOT, 12 hrs after Completion of Drug Administration (rats of 10 months of age; group a): carbon tetrachloride + indomethacin (5 mg/kg oral, 3 times on every other day), no sulfatide): 1054 ± 31.2 KARMEN units
CCCCCCCCCCCCCCCCOCC(COC1OC(CO)C(O)C(OS(=O)(=O)O)C1O)OC(=O)CCCCCCCCCCCCCCC [seminolipid, 3-O-(β-D-Galactopyranosyl 3-sulfate)-2-O-hexadecanoyl-1-O-hexadecyl-L-glycerol]	3/15	4/15	8/15	
III³ II³ SO₃ Ge3Cer [SB2]	4/15	5/15	10/15	
II³ SO₃ Lac Cer [SM3]	2/15	4/15	8/15	
IV³ SO₃ II³ SO₃ Ge4Cer [SB1a]	5/15	7/15	10/15	
sialyl Lewis A				Changes in positive urinary protein, Weeks of Age 16 [1, 5]: 3/15; Changes in positive urinary protein, Weeks of Age 17 [1, 5]: 5/14; Changes in positive urinary protein, Weeks of Age 18 [1, 5]: 9/14
sialyl Lewis X				Changes in positive urinary protein, Weeks of Age 16 [1, 5]: 3/15; Changes in positive urinary protein, Weeks of Age 17 [1, 5]: 4/15; Changes in positive urinary protein, Weeks of Age 18 [1, 5]: 8/15
sulfatide	2/15	5/15	9/15	Changes in GOT, 12 hrs after Completion of Drug Administration (rats of 10 months of age; group c): carbon tetrachloride + indomethacin (5 mg/kg) + sulfatide composition (2 mg/kg as sulfatide, oral)): 469 ± 61.5 KARMEN units; Changes in GOT, 12 hrs after Completion of Drug Administration (rats of 10 months of age; group d): carbon tetrachloride + tetracycline (10 mg/kg) + sulfatide composition (2 mg/kg as sulfatide, oral)): 439 ± 30.5 KARMEN units; Changes in GOT, 12 hrs after Completion of Drug Administration (rats of 10 months of age; group e): carbon tetrachloride + sulfatide composition (2 mg/kg as sulfatide, oral)): 128 ± 48.7 KARMEN units; average survival days [2]: significantly effective in dose-dependently prolonging average survival days; effect of IFN-α on average survival days [3]: further increased significantly in a dose dependent fashion
